Key:
Assay in all cases: relative viability (nuclei count vs DMSO), 5 days (fraction); higher = more cells survive
[1] = compound: C[C@@H](Oc1cc(-c2cnn(C3CCNCC3)c2)cnc1N)c1c(Cl)ccc(F)c1Cl [Crizotinib] + CC1(C)CCC(c2ccc(Cl)cc2)=C(CN2CCN(c3ccc(C(=O)NS(=O)(=O)c4ccc(N[C@H](CCN5CCOCC5)CSc5ccccc5)c(S(=O)(=O)C(F)(F)F)c4)cc3)CC2)C1 [Navitoclax] (partner 0.5 µM)
Summary of the method: (§1)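 Cells from lung cancer lines were seeded into 1536-well plates and, one day later, dosed by pin tool. Treatments were either a single drug or a fixed dose of an anchor drug with five library-drug doses (not always all listed) in √10 steps. After 5 days, nuclei were stained in a one-step fixation (final 0.05% Triton X-100, 1% formaldehyde, 1 ug/ml Hoechst) and counted on 4× images, and relative viability is the treated-to-vehicle nuclei ratio, as the median of duplicate plates.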

[2] = compound: C[C@@H](Oc1cc(-c2cnn(C3CCNCC3)c2)cnc1N)c1c(Cl)ccc(F)c1Cl [Crizotinib] + CCNC(=O)c1noc(-c2cc(C(C)C)c(O)cc2O)c1-c1ccc(CN2CCOCC2)cc1 [Luminespib] (partner 0.01 µM)
Summary of the method: as §1

[3] = compound: C[C@@H](Oc1cc(-c2cnn(C3CCNCC3)c2)cnc1N)c1c(Cl)ccc(F)c1Cl [Crizotinib] + COc1cc2c(Oc3ccc(NC(=O)C4(C(=O)Nc5ccc(F)cc5)CC4)cc3F)ccnc2cc1OCCCN1CCOCC1 [Foretinib] (partner 0.25 µM)
Summary of the method: as §1

[4] = compound: O=C(c1cc(Cc2n[nH]c(=O)c3ccccc23)ccc1F)N1CCN(C(=O)C2CC2)CC1 [Olaparib] + O=C(CCCCCCC(=O)Nc1ccccc1)NO [Vorinostat] (partner 1 µM)
Summary of the method: as §1

| Cell Line | relative viability ([1]; first compound 0.01 µM) | relative viability ([1]; first compound 0.03162 µM) | relative viability ([1]; first compound 0.3162 µM) | relative viability ([1]; first compound 1 µM) | relative viability ([2]; first compound 0.01 µM) | relative viability ([2]; first compound 0.03162 µM) | relative viability ([2]; first compound 0.1 µM) | relative viability ([2]; first compound 0.3162 µM) | relative viability ([2]; first compound 1 µM) | relative viability ([3]; first compound 0.01 µM) | relative viability ([3]; first compound 0.03162 µM) | relative viability ([3]; first compound 0.1 µM) | relative viability ([3]; first compound 0.3162 µM) | relative viability ([3]; first compound 1 µM) | relative viability ([4]; first compound 0.08 µM) | relative viability ([4]; first compound 0.253 µM) | relative viability ([4]; first compound 2.53 µM) | relative viability ([4]; first compound 8 µM) | relative viability ([1]; first compound 0.1 µM) |
| --- | --- | --- | --- | --- | --- | --- | --- | --- | --- | --- | --- | --- | --- | --- | --- | --- | --- | --- | --- |
| LXF-289 | 0.856 | 0.931 | 0.879 | 0.939 | 0.664 | 0.726 | 0.662 | 0.445 | 0.609 | 0.864 | 1 | 1.01 | 0.914 | 0.954 | 0.81 | 0.731 | 0.807 | 0.722 | – |
| NCI-H23 | 0.85 | 0.738 | – | 0.816 | 0.242 | 0.221 | 0.206 | 0.212 | 0.236 | 0.998 | 0.905 | 1.01 | – | 0.936 | 0.957 | 0.542 | 0.434 | 0.256 | 0.688 |
| NCI-H358 | – | – | – | – | 0.464 | 0.431 | 0.488 | 0.416 | 0.334 | 0.609 | 0.835 | 0.649 | 0.624 | 0.713 | 0.697 | 0.613 | 0.634 | 0.551 | – |
| NCI-H522 | – | – | – | – | 1.05 | 1.06 | 1.05 | 1.15 | 1.08 | – | – | – | – | – | 1.04 | 0.812 | 0.797 | 0.758 | – |
| NCI-H650 | – | – | – | – | 0.726 | 0.75 | – | 0.798 | 0.942 | 1.03 | 0.998 | 1.03 | 0.977 | 0.99 | 0.431 | 0.37 | 0.377 | 0.238 | – |
| NCI-H661 | – | – | – | – | 0.832 | 0.92 | 0.892 | – | 0.908 | 0.941 | – | 1.01 | 1.08 | 0.98 | 0.885 | 0.715 | 0.692 | 0.551 | – |
| NCI-H1299 | 1.04 | 1.02 | 1.07 | 1.01 | – | – | – | – | – | 1.03 | 1.07 | 1.04 | 1.08 | 1.06 | – | – | – | – | 1.01 |
| NCI-H1563 | – | – | – | – | 0.528 | 0.505 | 0.49 | 0.566 | 0.534 | 0.93 | – | 0.888 | 0.904 | 1.05 | – | – | – | – | – |
| NCI-H1623 | – | – | – | – | – | 0.469 | 0.502 | 0.486 | 0.5 | 0.736 | 0.92 | 0.829 | 0.873 | 0.801 | – | – | – | – | – |
| NCI-H1648 | – | – | – | – | – | – | – | – | – | – | – | – | – | – | 0.392 | 0.477 | – | 0.37 | – |
| NCI-H1703 | 1.03 | 0.933 | – | 1.12 | – | – | – | – | – | 0.362 | 0.295 | 0.358 | 0.398 | 0.331 | – | – | – | – | – |
| NCI-H1792 | 0.629 | 0.679 | 0.398 | 0.577 | 0.46 | 0.39 | 0.529 | – | 0.553 | – | – | – | – | – | – | – | – | – | 0.745 |
| NCI-H2342 | – | – | – | – | 0.635 | 0.931 | 0.674 | 0.705 | 0.815 | 1.01 | 1.04 | 1.06 | 0.978 | 1.14 | 0.771 | 0.699 | 0.66 | 0.653 | – |
| SW 900 | – | – | – | – | 0.172 | 0.164 | 0.19 | 0.194 | 0.175 | 0.935 | 0.877 | 0.823 | 1.01 | 0.742 | 0.462 | 0.446 | 0.443 | 0.515 | – |

— the supplement of paper PMC10307832
